# Test system: TSP-1 null mice
# Experiment: Corneal fluorescein staining in murine model of Sjögren's syndrome
# Assay type: in vivo
# Conditions: 5 μL eye drops twice daily, 30 μM quercetin and/or 0.5 μM I3O in PBS
# Protocol: Mice. Thrombospondin (TSP)-1 null mice (C57BL/6 background), were bred in-house in a pathogen-free facility at Boston University School of Medicine, Boston, Mass. All experiments were conducted in accordance with institutional guidelines and ARVO Statement of the Use of Animals in Ophthalmic and Vision Research.
# Corneal Fluorescein Staining. Sodium fluorescein (1%), 1 μl was applied to the cornea of mice under anesthesia. Three minutes later, eyes were flushed with PBS to remove excess fluorescein, and corneal staining was evaluated and photographed with a slit lamp biomicroscope (Humphrey-Zeiss, Dublin, Calif.) using a cobalt blue light. Punctate staining was recorded using a standardized National Eye Institute grading system of 0 to 3 for each of the five areas of the cornea (Lemp, 1995, CLAO J. 21:221-232).
# TSP-1 deficient (null) mice (12 wk old) were treated with eyedrops twice daily for a period of two weeks. The 5 μL eye drops were either PBS as a control or 0.5 μM I3O and 30 μM quercetin in PBS, 0.5 μM I3O alone in PBS, or 30 μM quercetin alone in PBS. […] Clinical signs of dry eye disease, including effect on the corneal surface and peroxidase levels in tears, were measured at baseline (prior to initiating treatment) and at the end of week 1 and effect on the corneal surface was assayed again at the end of week 2. […]
Structure (SMILES),"corneal surface / corneal fluorescein score, week 1 (week 1, FIG. 5)","corneal surface / corneal fluorescein score, week 2 (week 2, FIG. 5)"
O=c1c(O)c(-c2ccc(O)c(O)c2)oc2cc(O)cc(O)c12 [quercetin],significant improvement in the corneal surface,
"O=C1Nc2ccccc2/C1=C1/Nc2ccccc2/C1=N\O [Heterodimer I3O, indirubin-3′-oxime]",,"small improvement in corneal fluorescein score at week 2, but it was not significant"

# From US11007177B2, “Compositions comprising a combination of a substituted flavonoid and a substituted indole for treating ocular diseases” (University of Macau, priority 2015, dated 2021)
